# Data: patent US20250268897A1, “USE OF HETEROCYCLIC COMPOUND IN TREATING DISEASES RELATED TO KINASE DRUG-RESISTANT MUTATION AND METHOD THEREFOR” (Sichuan Kelun-Biotech Biopharmaceutical Co., Ltd., priority 2021, published 2025)
# What was measured:
# [1] = test system: Ba/F3 KIF5B-RET^G810R subcutaneous tumour; experiment: In vivo efficacy in BALB/c Nude mouse model with Ba/F3 KIF5B-RET^G810R subcutaneous tumour; details: 30 mg/kg, PO, BID × 12; for VP-1 (mm^3, mean ± SEM): tumour volume one day before administration: baseline of the group
# [2] = molecular target: RET-G810R enzyme (Homo sapiens (Human), UniProt P07949, G810R); experiment: RET inhibition experiment, HTRF KinEASE-TK kit, RET-G810R; format: biochemical; details: for IC50: Table 2
# Sequence of RET-G810R enzyme (P07949 29-1114 G810R): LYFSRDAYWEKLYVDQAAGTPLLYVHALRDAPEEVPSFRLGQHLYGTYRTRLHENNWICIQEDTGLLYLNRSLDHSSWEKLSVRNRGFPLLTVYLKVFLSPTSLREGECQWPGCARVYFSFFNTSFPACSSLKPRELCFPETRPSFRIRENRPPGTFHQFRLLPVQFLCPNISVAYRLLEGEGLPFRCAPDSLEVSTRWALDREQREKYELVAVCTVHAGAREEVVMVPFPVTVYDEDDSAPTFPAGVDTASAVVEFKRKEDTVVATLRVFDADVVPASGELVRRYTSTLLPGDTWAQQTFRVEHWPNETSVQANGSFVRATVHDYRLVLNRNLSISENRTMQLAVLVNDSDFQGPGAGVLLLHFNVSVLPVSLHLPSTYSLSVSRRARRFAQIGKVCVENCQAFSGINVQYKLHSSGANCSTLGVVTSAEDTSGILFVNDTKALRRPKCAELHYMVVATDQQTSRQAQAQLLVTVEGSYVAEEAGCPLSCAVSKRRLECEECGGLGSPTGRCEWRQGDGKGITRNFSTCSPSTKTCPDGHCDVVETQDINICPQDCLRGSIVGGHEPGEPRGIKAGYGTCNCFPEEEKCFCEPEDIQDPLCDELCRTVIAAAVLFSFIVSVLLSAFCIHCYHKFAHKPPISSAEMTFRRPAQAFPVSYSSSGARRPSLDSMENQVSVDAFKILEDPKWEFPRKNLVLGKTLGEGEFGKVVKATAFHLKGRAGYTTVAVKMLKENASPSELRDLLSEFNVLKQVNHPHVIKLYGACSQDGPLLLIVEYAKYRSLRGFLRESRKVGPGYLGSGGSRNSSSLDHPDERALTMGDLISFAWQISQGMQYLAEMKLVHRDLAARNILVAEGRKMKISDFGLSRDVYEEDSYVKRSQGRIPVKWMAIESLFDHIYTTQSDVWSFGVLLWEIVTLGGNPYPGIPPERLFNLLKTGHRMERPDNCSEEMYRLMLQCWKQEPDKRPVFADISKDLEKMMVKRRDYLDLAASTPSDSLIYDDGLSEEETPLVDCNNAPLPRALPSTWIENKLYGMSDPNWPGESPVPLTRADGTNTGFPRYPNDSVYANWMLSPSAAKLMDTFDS
# [3] = molecular target: RET-G810S enzyme (Homo sapiens (Human), UniProt P07949, G810S); experiment: RET inhibition experiment, HTRF KinEASE-TK kit, RET-G810S; format: biochemical; details: for Inhibition rate on RET-G810S (%) / inhibition at 0.3 µM: compound concentration 300 nM; for inhibition at 0.3 µM: read-out: Inhibition rate on RET-G810S (%); for IC50: Table 4
# Sequence of RET-G810S enzyme (P07949 29-1114 G810S): as the sequence (P07949 29-1114 G810R) above, with R782S counted along it
# [4] = molecular target: RET-G810C enzyme (Homo sapiens (Human), UniProt P07949, G810C); experiment: RET inhibition experiment, HTRF KinEASE-TK kit, RET-G810C; format: biochemical; details: for IC50: Table 6
# Sequence of RET-G810C enzyme (P07949 29-1114 G810C): as the sequence (P07949 29-1114 G810R) above, with R782C counted along it
smiles,measurement,setting,value
"CO[C@]1(C(=O)N[C@@H](C)c2ccc(-n3cc(F)cn3)nc2)CC[C@H](c2nc(C)cc(Nc3cc(C)[nH]n3)n2)CC1 [BLU-667, Pralsetinib]",TGI (%) tumour growth inhibition rate,[1],29.78%
same,"VP12 (mm^3, mean ± SEM): tumour volume on Day 12 of administration",[1],552.89 ± 29.7 mm^3
same,"VP-1 (mm^3, mean ± SEM): tumour volume one day before administration",[1],101.82 ± 5.93 mm^3
Cc1ccc(CN2C3CC2CN(c2ccc(-c4nc(C)cc(Nc5cc(C)[nH]n5)n4)cn2)C3)cc1 [Compound 2],Inhibition rate on RET-G810R (%),[2]; compound concentration 300 nM,70.41 ± 4.57%
Cc1cc(Nc2cc(C)[nH]n2)nc(-c2ccc(N3CC4CC(C3)N4Cc3ccc(Cl)cn3)nc2)n1 [Compound 3],Inhibition rate on RET-G810R (%),[2]; compound concentration 300 nM,72.49 ± 3.15%
Cc1cnn(-c2ccc(CN3C4CC3CN(c3ccc(-c5nc(C)cc(Nc6cc(C)[nH]n6)n5)cn3)C4)cn2)c1 [Compound 4],Inhibition rate on RET-G810R (%),[2]; compound concentration 300 nM,78.98 ± 0.24%
same,Inhibition rate on RET-G810S (%),[3],98.89 ± 0.18%
Cc1cc(Nc2cc(C)[nH]n2)nc(-c2ccc(N3CC4CC(C3)N4Cc3ccc(-n4cccn4)nc3)nc2)n1 [Compound 5],IC50,[2],185 nM
same,Inhibition rate on RET-G810S (%),[3],97.89 ± 0.57%
Cc1cc(Nc2cc(C)[nH]n2)nc(-c2ccc(N3CC4CC(C3)N4Cc3ccc(-n4cccn4)cc3)nc2)n1 [Compound 6],Inhibition rate on RET-G810R (%),[2]; compound concentration 300 nM,77.16 ± 3.87%
same,Inhibition rate on RET-G810S (%),[3],83.01 ± 1.42%
Cc1cc(Nc2cc(C)[nH]n2)nc(-c2ccc(N3CC4CC(C3)N4Cc3ccc(-n4cc(F)cn4)cc3)nc2)n1 [Compound 7],Inhibition rate on RET-G810S (%),[3],91.80 ± 0.98%
Cc1cc(Nc2cc(C)[nH]n2)nc(-c2ccc(N3CC4CC(C3)N4Cc3ccc(-n4ccc(F)n4)nc3)nc2)n1 [Compound 8],Inhibition rate on RET-G810S (%),[3],83.73 ± 3.16%
"Cc1cc(Nc2cc(C)[nH]n2)nc(-c2ccc(N3CC4CC(C3)N4Cc3ccc(-n4cc(Cl)cn4)nc3)nc2)n1 [Compound 9, 2-(6-(6-((6-(4-chloro-1H-pyrazol-1-yl)pyridin-3-yl)methyl)-3,6-diazabicyclo [3.1.1]heptan-3-yl)pyridin-3-yl)-6-methyl-N-(5-methyl-1H-pyrazol-3-yl) pyrimidin-4-amine]",inhibition at 0.3 µM,"[2]; compound concentration 300 nM, read-out: Inhibition rate on RET-G810R (%)",78.6 ± 4.5%
same,inhibition at 0.3 µM,[3],97.64 ± 0.19%
Cc1cc(Nc2cc(C)[nH]n2)nc(-c2ccc(N3CC4CC(C3)N4Cc3ccc(-n4cnc(F)c4)nc3)nc2)n1 [Compound 10],Inhibition rate on RET-G810R (%),[2]; compound concentration 300 nM,72.78 ± 1.58%
same,Inhibition rate on RET-G810S (%),[3],88.46 ± 2.23%
Cc1cc(Nc2cc(C)[nH]n2)nc(-c2ccc(N3CC4CC(C3)N4Cc3ccc(-n4nccc4C4CC4)nc3)nc2)n1 [Compound 11],Inhibition rate on RET-G810S (%),[3],90.87 ± 1.13%
Cc1cc(Nc2cc(C)[nH]n2)nc(-c2ccc(N3CC4CC(C3)N4Cc3ccc(-n4cc(C)c(C)n4)nc3)nc2)n1 [Compound 12],Inhibition rate on RET-G810R (%),[2]; compound concentration 300 nM,69.44 ± 0.31%
same,Inhibition rate on RET-G810S (%),[3],99.19 ± 0.55%
same,Inhibition rate on RET-G810C (%),[4]; compound concentration 300 nM,69.10 ± 5.56%
Cc1cc(Nc2cc(C)[nH]n2)nc(-c2ccc(N3CC4CC(C3)N4Cc3ccc(-n4cc(F)cn4)nc3)nc2)c1 [Compound 13],Inhibition rate on RET-G810S (%),[3],97.21 ± 1.01%
"Cc1cc(Nc2cc(C)[nH]n2)nc(-c2ccc(N3CC4CC(C3)N4Cc3ccc(-n4nccc4C4CC4)cc3)nc2)n1 [Compound 14, 2-(6-(6-(4-(5-cyclopropyl-1H-pyrazol-1-yl)benzyl)-3,6-diazabicyclo [3.1.1]heptan-3-yl)pyridin-3-yl)-6-methyl-N-(5-methyl-1H-pyrazol-3-yl) pyrimidin-4-amine]",inhibition at 0.3 µM,[3],92.56 ± 0.08%
"Cc1cc(Nc2cc(C)[nH]n2)nc(-c2ccc(N3CC4CC(C3)N4Cc3ccc(-n4ccc(C5CC5)n4)cc3)nc2)n1 [Compound 15, 2-(6-(6-(4-(3-cyclopropyl-1H-pyrazol-1-yl)benzyl)-3,6-diazabicyclo [3.1.1]heptan-3-yl)pyridin-3-yl)-6-methyl-N-(5-methyl-1H-pyrazol-3-yl) pyrimidin-4-amine]",inhibition at 0.3 µM,[3],97.22 ± 0.39%
Cc1cc(Nc2cc(C)[nH]n2)nc(-c2ccc(N3CC4CC(C3)N4Cc3ccc(-c4ccc(C)o4)nc3)nc2)n1 [Compound 16],Inhibition rate on RET-G810S (%),[3],85.27 ± 0.37%
Cc1cc(Nc2cc(C)[nH]n2)nc(-c2ccc(N3CC4CC(C3)N4Cc3ccc(-n4ccc(F)n4)cc3)nc2)n1 [Compound 17],Inhibition rate on RET-G810S (%),[3],90.64 ± 0.68%
Cc1cc(Nc2cc(C)[nH]n2)nc(-c2ccc(N3CC4CC(C3)N4Cc3ccc(-n4cc(F)cn4)nc3)nc2)n1 [Compound 18],IC50,[2],132 nM
same,IC50,[3],15.9 nM
same,IC50,[4],36.3 nM
Cc1cc(Nc2cc(C)[nH]n2)nc(-c2ccc(N3CC4CC(C3)N4Cc3ccc(-n4nccc4OC4CC4)nc3)nc2)n1 [Compound 19],Inhibition rate on RET-G810S (%),[3],80.98 ± 7.32%
same,Inhibition rate on RET-G810C (%),[4]; compound concentration 300 nM,82.80 ± 3.66%
Cc1cc(Nc2cc(C)[nH]n2)nc(-c2ccc(N3CC4CC(C3)N4Cc3ccc(-n4ncc(F)c4C)nc3)nc2)n1 [Compound 20],Inhibition rate on RET-G810S (%),[3],96.67 ± 0.03%
same,Inhibition rate on RET-G810C (%),[4]; compound concentration 300 nM,86.86 ± 1.73%
Cc1cc(Nc2cc(C)[nH]n2)nc(-c2ccc(N3CC4CC(C3)N4Cc3ccc(-c4ccc[nH]4)nc3)nc2)n1 [Compound 21],IC50,[3],6.61 nM
same,IC50,[4],173 nM
Cc1cc(Nc2cc(C)[nH]n2)nc(-c2ccc(N3CC4CC(C3)N4Cc3ccc(-n4ncc(F)c4C4CC4)nc3)nc2)n1 [Compound 22],Inhibition rate on RET-G810C (%),[4]; compound concentration 300 nM,84.26 ± 6.82%
"Cc1cc(Nc2cc(C)[nH]n2)nc(-c2ccc(N3CC4CC(C3)N4Cc3ccc(-n4ccc(C(C)(C)O)n4)nc3)nc2)n1 [Compound 24, 2-(1-(5-((3-(5-(4-methyl-6-((5-methyl-1H-pyrazol-3-yl)amino)pyrimidin-2-yl)pyridin-2-yl)-3,6-diazabicyclo [3.1.1]heptan-6-yl)methyl)pyridin-2-yl)-1H-pyrazol-3-yl) propan-2-ol]",IC50,[3],57.2 nM
Cc1cc(Nc2cc(C)[nH]n2)nc(-c2ccc(N3CC4CC(C3)N4Cc3ccc(-c4ccn[nH]4)nc3)nc2)n1 [Compound 25],Inhibition rate on RET-G810S (%),[3],97.26 ± 0.72%
Cc1cc(Nc2cc(C)[nH]n2)nc(-c2ccc(N3CC4CC(C3)N4Cc3ccc(-c4cscn4)nc3)nc2)n1 [Compound 26],Inhibition rate on RET-G810S (%),[3],97.83 ± 0.32%
Cc1cc(Nc2cc(C)[nH]n2)nc(-c2ccc(N3CC4CC(C3)N4Cc3ccc(-c4ccc(F)[nH]4)nc3)nc2)n1 [Compound 27],IC50,[3],23.1 nM
same,Inhibition rate on RET-G810C (%),[4]; compound concentration 300 nM,82.66 ± 2.47%
"Cc1cc(Nc2cc(C)[nH]n2)nc(-c2ccc(N3CC4CC(C3)N4Cc3ccc(-n4nc(F)cc4C)nc3)nc2)n1 [Compound 28, 2-(6-(6-((6-(3-fluoro-5-methyl-1H-pyrazol-1-yl)pyridin-3-yl)methyl)-3,6-diazabicyclo [3.1.1]heptan-3-yl)pyridin-3-yl)-6-methyl-N-(5-methyl-1H-pyrazol-3-yl) pyrimidin-4-amine]",inhibition at 0.3 µM,[3],90.8 ± 1.24%
"Cc1cc(Nc2cc(C)[nH]n2)nc(-c2ccc(N3CC4CC(C3)N4Cc3ccc(-c4ccco4)nc3)nc2)n1 [Compound 29, 2-(6-(6-((6-(furan-2-yl)pyridin-3-yl)methyl)-3,6-diazabicyclo [3.1.1]heptan-3-yl)pyridin-3-yl)-6-methyl-N-(5-methyl-1H-pyrazol-3-yl) pyrimidin-4-amine]",inhibition at 0.3 µM,[3],93.21 ± 0.91%
"Cc1cc(Nc2cc(C)[nH]n2)nc(-c2ccc(N3CC4CC(C3)N4Cc3ccc(-n4cc(F)c(C(C)(C)O)n4)nc3)nc2)n1.O=C(O)/C=C/C(=O)O [Compound 30-A, Fumarate of 2-(4-fluoro-1-(5-((3-(5-(4-methyl-6-((5-methyl-1H-pyrazol-3-yl)amino)pyrimidin-2-yl)pyridin-2-yl)-3,6-diazabicyclo [3.1.1]heptan-6-yl)methyl)pyridin-2-yl)-1H-pyrazol-3-yl) propan-2-ol]",Inhibition rate on RET-G810S (%),[3],99.01 ± 0.15%
same,IC50,[4],125 nM
"Cc1cc(Nc2cc(C)[nH]n2)nc(-c2ccc(N3CC4CC(C3)N4Cc3cnc(-n4cc(F)cn4)cn3)nc2)n1 [Compound 31, 2-(6-(6-((5-(4-fluoro-1H-pyrazol-1-yl)pyrazin-2-yl)methyl)-3,6-diazabicyclo [3.1.1]hept-3-yl)pyridin-3-yl)-6-methyl-N-(5-methyl-1H-pyrazol-3-yl) pyrimidin-4-amine]",inhibition at 0.3 µM,[3],99.69 ± 0.14%
same,inhibition at 0.3 µM,"[4]; compound concentration 300 nM, read-out: Inhibition rate on RET-G810C (%)",74.1 ± 1.28%
"COc1ccc(CN2C3CC2CN(c2ccc(-c4cc(OCC(C)(C)O)cn5ncc(C#N)c45)cn2)C3)cn1 [LOXO-292, Selpercatinib]",TGI (%) tumour growth inhibition rate,[1],2.69%
same,"VP12 (mm^3, mean ± SEM): tumour volume on Day 12 of administration",[1],725.55 ± 54.84 mm^3
same,"VP-1 (mm^3, mean ± SEM): tumour volume one day before administration",[1],100.47 ± 4.52 mm^3
